The source of these data is PMC10797614, “MYC-Targeting Inhibitors Generated from a Stereodiversified Bicyclic Peptide Library” (Journal of the American Chemical Society, 2024).

A short description of one data set: tandem ring-opening/ring-closing metathesis (ROM-RCM) of side-chain norbornene with two Glu allyl esters to bicyclic peptide; Hoveyda-Grubbs 2nd gen (M720), two portions (library procedure). Particulars: the molecule shown is the open-chain precursor; 28-membered ring; 1,2-dichloroethane; resin; 70.0 °C.
As for `C=CCOC(=O)CC[C@H](NC(=O)[C@H](CC(C)C)NC(=O)[C@H](C)NC(=O)[C@@H]1CCCN1C(=O)[C@H](CCCCNC(=O)[C@@H]1C[C@H]2C=C[C@@H]1C2)NC(=O)[C@@H](NC(=O)[C@@H](NC(=O)[C@H](Cc1ccccc1)NC(=O)[C@H](CCC(=O)OCC=C)NC(=O)OCC1c2ccccc2-c2ccccc21)[C@@H](C)CC)C(C)C)C(N)=O`, the ring closure, conversion by HPLC (% (semiquantitative, mass spectrometry)) was determined as 14.

The compound `C=CCOC(=O)CC[C@H](NC(=O)[C@H](CC(C)C)NC(=O)[C@H](C)NC(=O)[C@@H]1CCCN1C(=O)[C@H](CCCCNC(=O)[C@H]1C[C@H]2C=C[C@@H]1C2)NC(=O)[C@@H](NC(=O)[C@@H](NC(=O)[C@H](Cc1ccccc1)NC(=O)[C@H](CCC(=O)OCC=C)NC(=O)OCC1c2ccccc2-c2ccccc21)[C@@H](C)CC)C(C)C)C(N)=O` yielded a ring closure, conversion by HPLC (% (semiquantitative, mass spectrometry)) of 47.

In turn, `C=CCOC(=O)CC[C@H](NC(=O)[C@H](CC(C)C)NC(=O)[C@H](C)NC(=O)[C@H](CCCCNC(=O)[C@@H]1C[C@H]2C=C[C@@H]1C2)NC(=O)[C@@H](NC(=O)[C@@H](NC(=O)[C@H](Cc1ccccc1)NC(=O)[C@H](CCC(=O)OCC=C)NC(=O)OCC1c2ccccc2-c2ccccc21)[C@@H](C)CC)C(C)C)C(N)=O` returned a ring closure, conversion by HPLC (% (semiquantitative, mass spectrometry)) of 18.

With `C=CCOC(=O)CC[C@H](NC(=O)[C@@H]1CCCN1C(=O)[C@H](CC(C)C)NC(=O)[C@H](C)NC(=O)[C@H](CCCCNC(=O)[C@H]1C[C@H]2C=C[C@@H]1C2)NC(=O)[C@@H](NC(=O)[C@@H](NC(=O)[C@H](Cc1ccccc1)NC(=O)[C@H](CCC(=O)OCC=C)NC(=O)OCC1c2ccccc2-c2ccccc21)[C@@H](C)CC)C(C)C)C(N)=O`, the ring closure, conversion by HPLC (% (semiquantitative, mass spectrometry)) stood at 2.

As for `C=CCOC(=O)CC[C@H](NC(=O)[C@H](CC(C)C)NC(=O)[C@@H]1CCCN1C(=O)[C@H](C)NC(=O)[C@H](CCCCNC(=O)[C@@H]1C[C@H]2C=C[C@@H]1C2)NC(=O)[C@@H](NC(=O)[C@@H](NC(=O)[C@H](Cc1ccccc1)NC(=O)[C@H](CCC(=O)OCC=C)NC(=O)OCC1c2ccccc2-c2ccccc21)[C@@H](C)CC)C(C)C)C(N)=O`, the ring closure, conversion by HPLC (% (semiquantitative, mass spectrometry)) amounted to 10.

With `C=CCOC(=O)CC[C@H](NC(=O)[C@H](CC(C)C)NC(=O)[C@@H]1CCCN1C(=O)[C@H](C)NC(=O)[C@H](CCCCNC(=O)[C@H]1C[C@H]2C=C[C@@H]1C2)NC(=O)[C@@H](NC(=O)[C@@H](NC(=O)[C@H](Cc1ccccc1)NC(=O)[C@H](CCC(=O)OCC=C)NC(=O)OCC1c2ccccc2-c2ccccc21)[C@@H](C)CC)C(C)C)C(N)=O`, the ring closure, conversion by HPLC (% (semiquantitative, mass spectrometry)) turned out to be 45.

For `C=CCOC(=O)CC[C@H](NC(=O)[C@@H]1CCCN1C(=O)[C@H](CC(C)C)NC(=O)[C@H](C)NC(=O)[C@H](CCCCNC(=O)[C@@H]1C[C@H]2C=C[C@@H]1C2)NC(=O)[C@@H](NC(=O)[C@@H](NC(=O)[C@H](Cc1ccccc1)NC(=O)[C@H](CCC(=O)OCC=C)NC(=O)OCC1c2ccccc2-c2ccccc21)[C@@H](C)CC)C(C)C)C(N)=O`, the ring closure, conversion by HPLC (% (semiquantitative, mass spectrometry)) was 2.

The compound `C=CCOC(=O)CC[C@H](NC(=O)[C@H](CC(C)C)NC(=O)[C@H](C)NC(=O)[C@H](CCCCNC(=O)[C@H]1C[C@H]2C=C[C@@H]1C2)NC(=O)[C@@H](NC(=O)[C@@H](NC(=O)[C@H](Cc1ccccc1)NC(=O)[C@H](CCC(=O)OCC=C)NC(=O)OCC1c2ccccc2-c2ccccc21)[C@@H](C)CC)C(C)C)C(N)=O` had a ring closure, conversion by HPLC (% (semiquantitative, mass spectrometry)) of 65.

The data set is the same for the next values; noted with them: the molecule shown is the open-chain precursor; 31-membered ring; 1,2-dichloroethane; resin; 70.0 °C.
With `C=CCOC(=O)CC[C@H](NC(=O)[C@H](CC(C)C)NC(=O)[C@H](C)NC(=O)[C@H](CCCCNC(=O)[C@@H]1C[C@H]2C=C[C@@H]1C2)NC(=O)[C@@H](NC(=O)[C@@H](NC(=O)[C@H](Cc1ccccc1)NC(=O)[C@@H]1CCCN1C(=O)[C@H](CCC(=O)OCC=C)NC(=O)OCC1c2ccccc2-c2ccccc21)[C@@H](C)CC)C(C)C)C(N)=O`, the ring closure, conversion by HPLC (% (semiquantitative, mass spectrometry)) is 22.

`C=CCOC(=O)CC[C@H](NC(=O)[C@H](CC(C)C)NC(=O)[C@H](C)NC(=O)[C@H](CCCCNC(=O)[C@@H]1C[C@H]2C=C[C@@H]1C2)NC(=O)[C@@H]1CCCN1C(=O)[C@@H](NC(=O)[C@@H](NC(=O)[C@H](Cc1ccccc1)NC(=O)[C@H](CCC(=O)OCC=C)NC(=O)OCC1c2ccccc2-c2ccccc21)[C@@H](C)CC)C(C)C)C(N)=O` registered a ring closure, conversion by HPLC (% (semiquantitative, mass spectrometry)) of 25.

Compound `C=CCOC(=O)CC[C@H](NC(=O)[C@H](CC(C)C)NC(=O)[C@H](C)NC(=O)[C@H](CCCCNC(=O)[C@H]1C[C@H]2C=C[C@@H]1C2)NC(=O)[C@@H](NC(=O)[C@@H]1CCCN1C(=O)[C@@H](NC(=O)[C@H](Cc1ccccc1)NC(=O)[C@H](CCC(=O)OCC=C)NC(=O)OCC1c2ccccc2-c2ccccc21)[C@@H](C)CC)C(C)C)C(N)=O` yielded a ring closure, conversion by HPLC (% (semiquantitative, mass spectrometry)) of 80.

With `C=CCOC(=O)CC[C@H](NC(=O)[C@H](CC(C)C)NC(=O)[C@H](C)NC(=O)[C@H](CCCCNC(=O)[C@@H]1C[C@H]2C=C[C@@H]1C2)NC(=O)[C@@H](NC(=O)[C@@H](NC(=O)[C@@H]1CCCN1C(=O)[C@H](Cc1ccccc1)NC(=O)[C@H](CCC(=O)OCC=C)NC(=O)OCC1c2ccccc2-c2ccccc21)[C@@H](C)CC)C(C)C)C(N)=O`, the ring closure, conversion by HPLC (% (semiquantitative, mass spectrometry)) came to 74.

The compound `C=CCOC(=O)CC[C@H](NC(=O)[C@H](CC(C)C)NC(=O)[C@H](C)NC(=O)[C@H](CCCCNC(=O)[C@@H]1C[C@H]2C=C[C@@H]1C2)NC(=O)[C@@H](NC(=O)[C@@H]1CCCN1C(=O)[C@@H](NC(=O)[C@H](Cc1ccccc1)NC(=O)[C@H](CCC(=O)OCC=C)NC(=O)OCC1c2ccccc2-c2ccccc21)[C@@H](C)CC)C(C)C)C(N)=O` showed a ring closure, conversion by HPLC (% (semiquantitative, mass spectrometry)) of 14.

`C=CCOC(=O)CC[C@H](NC(=O)[C@H](CC(C)C)NC(=O)[C@H](C)NC(=O)[C@H](CCCCNC(=O)[C@H]1C[C@H]2C=C[C@@H]1C2)NC(=O)[C@@H](NC(=O)[C@@H](NC(=O)[C@@H]1CCCN1C(=O)[C@H](Cc1ccccc1)NC(=O)[C@H](CCC(=O)OCC=C)NC(=O)OCC1c2ccccc2-c2ccccc21)[C@@H](C)CC)C(C)C)C(N)=O` showed a ring closure, conversion by HPLC (% (semiquantitative, mass spectrometry)) of 79.

`C=CCOC(=O)CC[C@H](NC(=O)[C@H](CC(C)C)NC(=O)[C@H](C)NC(=O)[C@H](CCCCNC(=O)[C@H]1C[C@H]2C=C[C@@H]1C2)NC(=O)[C@@H](NC(=O)[C@@H](NC(=O)[C@H](Cc1ccccc1)NC(=O)[C@@H]1CCCN1C(=O)[C@H](CCC(=O)OCC=C)NC(=O)OCC1c2ccccc2-c2ccccc21)[C@@H](C)CC)C(C)C)C(N)=O` registered a ring closure, conversion by HPLC (% (semiquantitative, mass spectrometry)) of 55.

`C=CCOC(=O)CC[C@H](NC(=O)[C@H](CC(C)C)NC(=O)[C@H](C)NC(=O)[C@H](CCCCNC(=O)[C@H]1C[C@H]2C=C[C@@H]1C2)NC(=O)[C@@H]1CCCN1C(=O)[C@@H](NC(=O)[C@@H](NC(=O)[C@H](Cc1ccccc1)NC(=O)[C@H](CCC(=O)OCC=C)NC(=O)OCC1c2ccccc2-c2ccccc21)[C@@H](C)CC)C(C)C)C(N)=O` gave a ring closure, conversion by HPLC (% (semiquantitative, mass spectrometry)) of 34.
